Drawing on patent publication US10035760B2, “Inhibitors of human immunodeficiency virus replication” (priority 2013, dated 2018), this text covers EC50 for 35 compounds.

The structures appear in SMILES notation. Where two headings read alike, the source gives them in different places.

In the test the test system is recombinant NL4-3 virus (Renilla luciferase) in MT-2 cells. Kind of test: HIV cell culture assay (antiviral activity, luciferase readout in infected MT-2 cells). It is filed as cell-based. The following applies: Renilla. A digest of the protocol: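 EC50 derived via median-effect equation from luciferase activity in MT-2 cells after 4–5 day infection, compound serially diluted. Virus: recombinant NL4-3 with Renilla luciferase replacing part of nef, made in 293T cells.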

The mark [1] stands for this setting: NL43, read-out: Activity, antiviral activity class, recombinant NL4-3 Renilla luciferase virus in MT-2 cells.
The mark [2] stands for this setting: NL43, recombinant NL4-3 Renilla luciferase virus in MT-2 cells.

Consider `Cc1ccccc1S(=O)(=O)NC(=O)N[C@H](C(=O)N(C)c1ccc2c(c1)OCO2)[C@H]1CCc2ccccc21` [Example 84, (S)—N-(benzo[d][1,3]dioxol-5-yl)-2-((S)-2,3-dihydro-1H-inden-1-yl)-N-methyl-2-(3-(o-tolylsulfonyl)ureido)acetamide], for which the EC50 is, setting by setting: under setting [1], 10000 to 100000 nM; under setting [2], 22100 nM.

`Cc1ccccc1S(=O)(=O)NC(=O)N[C@@H](Cc1cccc(F)c1)C(=O)N(C)c1ccc2c(c1)OCO2` [Example 85, (S)—N-(benzo[d][1,3]dioxol-5-yl)-3-(3-fluorophenyl)-N-methyl-2-(3-(o-tolylsulfonyl)ureido)propanamide]: under setting [1], the EC50 lay in the range of 100 to 1000 nM.

With `CN(C(=O)[C@@H](Cc1ccccc1)NC(=O)NS(=O)(=O)c1ccccc1)c1ccc2c(c1)OCO2` [Example 86], under setting [1], the EC50 is 10000 to 100000 nM.

As to `CN(C(=O)[C@H](Cc1ccccc1)NC(=O)NS(=O)(=O)c1ccccc1)c1ccccc1` [Example 87, (S)—N-methyl-N, 3-diphenyl-2-(3-(phenylsulfonyl)ureido)propanamide], the EC50 under setting [1] is 100 to 1000 nM.

For the compound `CN(C(=O)[C@H](Cc1ccccc1)NC(=O)NS(=O)(=O)c1ccccc1)c1ccc(Cl)cc1` [Example 88], the EC50 under setting [1] was 100 to 1000 nM and the EC50 under setting [2] was determined as 450 nM.

In the case of `COc1cccc(N(C)C(=O)[C@H](Cc2ccccc2)NC(=O)NS(=O)(=O)c2ccccc2)c1` [Example 89], the EC50 under setting [1] fell in the range of 100 to 1000 nM.

Take `Cc1cccc(N(C)C(=O)[C@H](Cc2ccccc2)NC(=O)NS(=O)(=O)c2ccccc2)c1` [Example 90]: under setting [1], the EC50 was 100 to 1000 nM.

Regarding `CN(C(=O)[C@H](Cc1ccccc1)NC(=O)NS(=O)(=O)c1ccccc1)c1ccc(F)cc1` [Example 91], the EC50 under setting [1] fell in the range of 100 to 1000 nM.

Regarding `COc1ccc(N(C)C(=O)[C@H](Cc2ccccc2)NC(=O)NS(=O)(=O)c2ccccc2)cc1` [Example 92], under setting [1], the EC50 lay within 100 to 1000 nM.

Turning to `CN(C(=O)[C@H](Cc1ccccc1)NC(=O)NS(=O)(=O)c1ccccc1)c1cccc(F)c1` [Example 93], the EC50 under setting [1] was in the range of 1000 to 10000 nM and the EC50 under setting [2] is 1590 nM.

With `CN(C(=O)[C@H](Cc1ccccc1)NC(=O)NS(=O)(=O)c1ccccc1)c1cccc2ccccc12` [Example 94, (S)—N-methyl-N-(naphthalen-1-yl)-3-phenyl-2-(3-(phenylsulfonyl)ureido)-propanamide], the EC50 under setting [1] was in the range of 10000 to 100000 nM.

In the case of `COc1ccccc1N(C)C(=O)[C@H](Cc1ccccc1)NC(=O)NS(=O)(=O)c1ccccc1` [Example 95, (S)—N-(2-methoxyphenyl)-N-methyl-3-phenyl-2-(3 (phenylsulfonyl)ureido)-propanamide], under setting [1], the EC50 lay within 1000 to 10000 nM.

Take `CCN(CC)CCN(C)C(=O)[C@H](Cc1ccccc1)NC(=O)NS(=O)(=O)c1ccccc1` [Example 96, (S)—N-(2-(diethylamino)ethyl)-N-methyl-3-phenyl-2-(3-(phenylsulfonyl)ureido)propanamide]: under setting [2], the EC50 is greater than 100000 nM.

With `Cc1nc(-c2ccc(CN(C)C(=O)[C@H](Cc3ccccc3)NC(=O)NS(=O)(=O)c3ccccc3)cc2)no1` [Example 97, (S)—N-methyl-N-(4-(5-methyl-1,2,4-oxadiazol-3-yl)benzyl)-3-phenyl-2-(3-(phenylsulfonyl)ureido)propanamide], the EC50 under setting [1] lay in the range of 1000 to 10000 nM.

Turning to `CN(C(=O)[C@H](Cc1ccccc1)NC(=O)NS(=O)(=O)c1c(F)cccc1F)c1ccc2c(c1)OCO2` [Example 98, (S)—N-(benzo[d][1,3]dioxol-5-yl)-2-(3-((2,6-difluorophenyl)sulfonyl)ureido)-N-methyl-3-phenylpropanamide], the EC50 was less than 100 nM under setting [1] and 90 nM under setting [2].

For `CN(C(=O)[C@H](Cc1ccccc1)NC(=O)NS(=O)(=O)c1cc(F)ccc1F)c1ccc2c(c1)OCO2` [Example 99, (S)—N-(benzo[d][1,3]dioxol-5-yl)-2-(3-((2,5-difluorophenyl)sulfonyl)ureido)-N-methyl-3-phenylpropanamide], the EC50 by setting is: under setting [1], 100 to 1000 nM; under setting [2], 150 nM.

On to `CN(C(=O)[C@H](Cc1ccccc1)NC(=O)NS(=O)(=O)c1c(Cl)cccc1Cl)c1ccc2c(c1)OCO2` [Example 100, (S)—N-(benzo[d][1,3]dioxol-5-yl)-2-(3-((2,6-dichlorophenyl)sulfonyl)ureido)-N-methyl-3-phenylpropanamide], for which, under setting [1], the EC50 is less than 100 nM.

Consider `CN(C(=O)[C@H](Cc1ccccc1)NC(=O)NS(=O)(=O)Cc1ccccc1Cl)c1ccc2c(c1)OCO2` [Example 101, (S)—N-(benzo[d][1,3]dioxol-5-yl)-2-(3-((2-chlorobenzyl)sulfonyl)ureido)-N-methyl-3-phenylpropanamide], for which, under setting [1], the EC50 is 100 to 1000 nM.

As to `CN(C(=O)[C@H](Cc1ccccc1)NC(=O)NS(=O)(=O)Cc1ccc(Cl)c(Cl)c1)c1ccc2c(c1)OCO2` [Example 102, (S)—N-(benzo[d][1,3]dioxol-5-yl)-2-(3-((3,4-dichlorobenzyl)sulfonyl)ureido)-N-methyl-3-phenylpropanamide], under setting [1], the EC50 lay within 100 to 1000 nM.

Regarding `CN(C(=O)[C@H](Cc1ccccc1)NC(=O)NS(=O)(=O)Cc1cccc(Cl)c1)c1ccc2c(c1)OCO2` [Example 103, (S)—N-(benzo[d][1,3]dioxol-5-yl)-2-(3-((3-chlorobenzyl)sulfonyl)ureido)-N-methyl-3-phenylpropanamide], the EC50 under setting [1] was in the range of 100 to 1000 nM.

With `Cc1ccccc1CS(=O)(=O)NC(=O)N[C@@H](Cc1ccccc1)C(=O)N(C)c1ccc2c(c1)OCO2` [Example 104, (S)—N-(benzo[d][1,3]dioxol-5-yl)-N-methyl-2-(3-((2-methylbenzyl)sulfonyl)ureido)-3-phenylpropanamide], the EC50 is, setting by setting: under setting [1], 100 to 1000 nM; under setting [2], 620 nM.

With `CN(C(=O)[C@H](Cc1ccccc1)NC(=O)NS(=O)(=O)Cc1ccc(C(F)(F)F)cc1)c1ccc2c(c1)OCO2` [Example 105, (S)—N-(benzo[d][1,3]dioxol-5-yl)-N-methyl-3-phenyl-2-(3-((4-(trifluoromethyl)benzyl)sulfonyl)ureido)propanamide], the EC50 under setting [1] lay within 100 to 1000 nM.

For `CC(C)C1CC1S(=O)(=O)NC(=O)N[C@@H](Cc1ccccc1)C(=O)N(C)c1ccc2c(c1)OCO2` (stereo partly drawn) [Example 106, (2S)—N-(benzo[d][1,3]dioxol-5-yl)-2-(3-((2-isopropylcyclopropyl)sulfonyl)ureido)-N-methyl-3-phenylpropanamide], under setting [1], the EC50 fell in the range of 100 to 1000 nM.

Regarding `CN(C(=O)[C@H](Cc1ccccc1)NC(=O)NS(=O)(=O)C1(Cc2ccccc2)CC1)c1ccc2c(c1)OCO2` [Example 107, (S)—N-(benzo[d][1,3]dioxol-5-yl)-2-(3-((1-benzylcyclopropyl)sulfonyl)ureido)-N-methyl-3-phenylpropanamide], under setting [1], the EC50 is 1000 to 10000 nM.

Take `COc1ccccc1S(=O)(=O)NC(=O)N[C@@H](Cc1ccccc1)C(=O)N(C)c1ccc2c(c1)OCO2` [Example 108, (S)—N-(benzo[d][1,3]dioxol-5-yl)-2-(3-((2-methoxyphenyl)sulfonyl)ureido)-N-methyl-3-phenylpropanamide]: the EC50 under setting [1] was 100 to 1000 nM.

As for `CN(C(=O)[C@H](Cc1ccccc1)NC(=O)NS(=O)(=O)Cc1ccc(Cl)cc1)c1ccc2c(c1)OCO2` [Example 109, (S)—N-(benzo[d][1,3]dioxol-5-yl)-2-(3-((4-chlorobenzyl)sulfonyl)ureido)-N-methyl-3-phenylpropanamide], the EC50 under setting [1] lay within 100 to 1000 nM.

Take `CN(C(=O)[C@H](Cc1ccccc1)NC(=O)NS(=O)(=O)Cc1ccc(F)cc1)c1ccc2c(c1)OCO2` [Example 110, (S)—N-(benzo[d][1,3]dioxol-5-yl)-2-(3-((4-fluorobenzyl)sulfonyl)ureido)-N-methyl-3-phenylpropanamide]: the EC50 under setting [1] lay within 100 to 1000 nM and the EC50 under setting [2] is 160 nM.

Consider `CN(C(=O)[C@H](Cc1ccccc1)NC(=O)NS(=O)(=O)C1CCCCC1)c1ccc2c(c1)OCO2` [Example 111, (S)—N-(benzo[d][1,3]dioxol-5-yl)-2-(3-(cyclohexylsulfonyl)ureido)-N-methyl-3-phenylpropanamide], for which the EC50 under setting [1] was in the range of 100 to 1000 nM.

Regarding `CCN(C(=O)[C@H](Cc1ccccc1)NC(=O)NS(=O)(=O)c1cccc(Br)c1)c1ccc(OC)cc1` [Example 112, (S)-2-(3-((3-bromophenyl)sulfonyl)ureido)-N-ethyl-N-(4-methoxyphenyl)-3-phenylpropanamide], under setting [1], the EC50 was less than 100 nM.

`CCN(C(=O)[C@H](Cc1ccccc1)NC(=O)NS(=O)(=O)c1ccccc1[N+](=O)[O-])c1ccc(OC)cc1` [Example 113, (S)—N-ethyl-N-(4-methoxyphenyl)-2-(3-((2-nitrophenyl)sulfonyl)ureido)-3-phenylpropanamide]: under setting [1], the EC50 was less than 100 nM.

As for `CCN(C(=O)[C@H](Cc1ccccc1)NC(=O)NS(=O)(=O)c1ccccc1C(=O)OC)c1ccc(OC)cc1` [Example 114, (S)-methyl 2-(N-((1-(ethyl(4-methoxyphenyl)amino)-1-oxo-3-phenylpropan-2-yl)carbamoyl)sulfamoyl)benzoate], the EC50 by setting is: under setting [1], 1000 to 10000 nM; under setting [2], 1060 nM.

As to `CCN(C(=O)[C@H](Cc1ccccc1)NC(=O)NS(=O)(=O)c1cccc(Br)c1C)c1ccc(OC)cc1` [Example 115, (S)-2-(3-((3-bromo-2-methylphenyl)sulfonyl)ureido)-N-ethyl-N-(4-methoxyphenyl)-3-phenylpropanamide], under setting [1], the EC50 is less than 100 nM.

In the case of `CCN(C(=O)[C@H](Cc1ccccc1)NC(=O)NS(=O)(=O)c1cccc2ccccc12)c1ccc(OC)cc1` [Example 116, (S)—N-ethyl-N-(4-methoxyphenyl)-2-(3-(naphthalen-1-ylsulfonyl)ureido)-3-phenylpropanamide], under setting [1], the EC50 was less than 100 nM.

As for `CCN(C(=O)[C@H](Cc1ccccc1)NC(=O)NS(=O)(=O)c1ccccc1F)c1ccc(OC)cc1` [Example 117, (S)—N-ethyl-2-(3-((2-fluorophenyl)sulfonyl)ureido)-N-(4-methoxyphenyl)-3-phenylpropanamide], under setting [1], the EC50 was less than 100 nM.

Regarding `CCN(C(=O)[C@H](Cc1ccccc1)NC(=O)NS(=O)(=O)c1c(F)cccc1F)c1ccc(OC)cc1` [Example 118, (S)-2-(3-((2,6-difluorophenyl)sulfonyl)ureido)-N-ethyl-N-(4-methoxyphenyl)-3-phenylpropanamide], the EC50 under setting [1] is less than 100 nM and the EC50 under setting [2] stood at 40 nM.
